Reference: US10434101B2, “Heterocyclic compounds and uses thereof” (Celgene CAR LLC, priority 2010, dated 2019)
Read-outs that look alike come from different tables or passages of the source.

What was measured:
[1] = target: EGFR double mutation L858R/T790M (H1975 cells) (Homo sapiens (Human), UniProt P00533, L858R/T790M); assay: Phospho-EGFR signaling (immunoblotting, 1 hr) in H1975 cells; format: cell-based; conditions: signaling EC50 WT (A431) / H1975
Protocol: (§1) A431 human epidermoid carcinoma, H1975 human NSCLC and HCC827 human NSCLC adenocarcinoma cells were obtained from the American Type Culture Center (Manassas, Va.). A431 cells were grown in DMEM (Invitrogen, Carlsbad, Calif.) supplemented with 10% FBS (HyClone, South Logan, Utah) and 1% Penicillin-Streptomycin (P/S, Lonza, Walkersville, Md.).
All primary antibodies were obtained from Cell Signaling (Danvers, Mass.) and used at 1:1000. Secondary antibodies were used at 1:10,000. Goat anti-mouse IgG IRDye 800CW antibody was obtained from LiCor Biosciences (Lincoln, Nebr.) and goat anti-rabbit IgG Alexa Fluor 680 was obtained from Invitrogen.
Cells were grown in 12-well plates (Corning, Coring, N.Y.) to 90% confluence and then incubated in low-serum (0.1% FBS) media for 16-18 hr. […] A431 cells were then stimulated with 50 ng/ml EGF (Peprotech, Rocky Hill, N.J.) for 15 min. After treatment, cell monolayers were washed with cold PBS (Invitrogen) and immediately lysed by scrapping into 60 uL cold Cell Extraction Buffer (Invitrogen) supplemented with Complete Protease inhibitors (Roche, Indianapolis, Ind.) and PhosphoSTOP (Roche) phosphatase inhibitors.
Phospho-protein signals were quantitated using Odyssey Infrared Imaging (Li-Cor Biosciences).
To assess phosphor-EGFR signaling, blots were probed with rabbit anti-Phospho-EGFR (Y1068) and mouse total anti-EGFR antibodies. Phospho-EGFR signal was normalized to total EGFR expression for each sample. […] Normalized data was fitted using a sigmoidal curve analysis program (Graph Pad Prism version 5) with variable Hill slope to determine the EC50 values.

A431 cells (WT EGFR) = assay: Cell proliferation (CellTiter Glo, 72 hr) in A431 cells; format: cell-based; conditions: Homo sapiens
Protocol: as §1
(§2) Cells were plated in Growth Media supplemented with 5% FBS and 1% P/S at a density of 3,000 cells per well in 96 well tissue culture plates (Corning). […] Growth inhibition (GI50) values were determined by Graph Pad Prism.

[2] = system: H1975 cells (EGFR L858R/T790M); assay: Cell proliferation (CellTiter Glo, 72 hr) in H1975 cells; format: cell-based, human; conditions: Homo sapiens, read-out: H1975 GI50
Protocol: as §1, §2

[3] = system: HCC827 cells (EGFR delE746-A750); assay: Cell proliferation (CellTiter Glo, 72 hr) in HCC827 cells; format: cell-based, human; conditions: Homo sapiens, read-out: HCC827 GI50
Protocol: as §1, §2

[4] = A-431, A431 cells, 72 hr, read-out: WT EGFR GI50

Compound | Ratio WT/mutant (H1975) [1] | GI50 (A431 cells (WT EGFR); [4]) [nM] | GI50 ([2]; NCI-H1975, H1975 cells, 72 hr) [nM] | GI50 ([3]; HCC827 cells, 72 hr) [nM] | GI50 (A431 cells (WT EGFR); A-431, 72 h, read-out: WT EGFR GI50) [nM] | GI50 ([2]; NCI-H1975, 72 h) [nM] | GI50 ([3]; HCC827, 72 h) [nM] | GI50 (A431 cells (WT EGFR); A-431, read-out: Comparative GI50 Values, A431) [nM]
C=CC(=O)Nc1cccc(Oc2nc(Nc3ccc(N4CCOCC4)cc3OC)ncc2C(F)(F)F)c1 [Compound I-1, N-(3-(2-(2-methoxy-4-morpholinophenylamino)-5-(trifluoromethyl)pyrimidin-4-yloxy)phenyl)acrylamide] | >50 | > 1000 | 10 to 100 | 10 to 100 | – | – | – | –
C=CC(=O)Nc1cccc(Oc2nc(Nc3ccc(N4CCN(C(=O)CO)CC4)cc3OC)ncc2Cl)c1 [Compound I-3, N-(3-(5-chloro-2-(4-(4-(2-hydroxyacetyl)piperazin-1-yl)-2-methoxyphenylamino)pyrimidin-4-yloxy)phenyl)acrylamide] | >5 | > 1000 | 100 to 500 | 10 to 100 | – | – | – | –
C=CC(=O)Nc1cccc(Oc2nc(Nc3ccc(N4CCOCC4)cc3OC)ncc2Cl)c1 [Compound I-5, N-(3-(5-chloro-2-(2-methoxy-4-morpholinophenylamino)pyrimidin-4-yloxy)phenyl)acrylamide] | >30 | > 1000 | 100 to 500 | 10 to 100 | – | – | – | –
C=CC(=O)Nc1cccc(Nc2nc(Nc3ccc(N4CCN(C(=O)CO)CC4)cc3OC)ncc2C(F)(F)F)c1 [Compound I-6, N-(3-(2-(4-(4-(2-hydroxyacetyl)piperazin-1-yl)-2-methoxyphenylamino)-5-(trifluoromethyl)pyrimidin-4-ylamino)phenyl)acrylamide] | >20 | 500 to 1000 | 10 to 100 | 10 to 100 | – | – | – | –
C=CC(=O)Nc1cccc(Nc2nc(Nc3ccc(N4CCCN(C(C)=O)CC4)cc3OC)ncc2C(F)(F)F)c1 [Compound I-7, N-(3-(2-(4-(4-acetyl-1,4-diazepan-1-yl)-2-methoxyphenylamino)-5-(trifluoromethyl)pyrimidin-4-ylamino)phenyl)acrylamide] | >5 | > 1000 | 100 to 500 | 100 to 500 | – | – | – | –
C=CC(=O)Nc1cccc(Nc2nc(Nc3ccc(N4CCN(C(C)=O)CC4)cc3OC)ncc2Cl)c1 [Compound I-8, N-(3-(2-(4-(4-acetylpiperazin-1-yl)-2-methoxyphenylamino)-5-chloropyrimidin-4-ylamino)phenyl)acrylamide] | >1 | 500 to 1000 | 100 to 500 | 10 to 100 | – | – | – | –
C=CC(=O)Nc1cccc(Oc2nc(Nc3ccc(N4CCN(C(C)=O)CC4)cc3OC)ncc2Cl)c1 [Compound I-9, N-(3-(2-(4-(4-acetylpiperazin-1-yl)-2-methoxyphenylamino)-5-chloropyrimidin-4-yloxy)phenyl)acrylamide] | – | > 1000 | 100 to 500 | 10 to 100 | – | – | – | –
C=CC(=O)Nc1cccc(Oc2nc(Nc3ccc(N4CCOCC4)cc3OC(F)F)ncc2C(F)(F)F)c1 [Compound I-13, N-(3-(2-(2-(difluoromethoxy)-4-morpholinophenylamino)-5-(trifluoromethyl)pyrimidin-4-yloxy)phenyl)acrylamide] | – | > 1000 | 100 to 500 | 10 to 100 | – | – | – | –
C=CC(=O)Nc1cccc(Oc2nc(Nc3ccc(N4CCN(C(=O)OC(C)(C)C)CC4)cc3OCC)ncc2Cl)c1 [Compound I-18, tert-butyl 4-(4-(4-(3-acrylamidophenoxy)-5-chloropyrimidin-2-ylamino)-3-ethoxyphenyl)piperazine-1-carboxylate] | – | > 1000 | 500 to 1000 | 100 to 500 | – | – | – | –
C=CC(=O)Nc1cccc(Nc2nc(Nc3ccc(N4CCCN(C(=O)C(F)(F)F)CC4)cc3OC)ncc2C(F)(F)F)c1 [Compound I-19, N-(3-(2-(2-methoxy-4-(4-(2,2,2-trifluoroacetyl)-1,4-diazepan-1-yl)phenylamino)-5-(trifluoromethyl)pyrimidin-4-ylamino)phenyl)acrylamide] | – | > 1000 | 100 to 500 | 100 to 500 | – | – | – | –
C=CC(=O)Nc1cccc(Oc2nc(Nc3ccc(N4CCN(C(=O)OC)CC4)cc3OC)ncc2C(F)(F)F)c1 [Compound I-20, methyl 4-(4-(4-(3-acrylamidophenoxy)-5-(trifluoromethyl)pyrimidin-2-ylamino)-3-methoxyphenyl)piperazine-1-carboxylate] | – | – | – | – | > 1000 | 100 to 500 | 100 to 500 | –
C=CC(=O)Nc1cccc(Oc2nc(Nc3ccc(N4CCN(C(=O)CC(C)(C)C)CC4)cc3OC)ncc2Cl)c1 [Compound I-23, N-(3-(5-chloro-2-(4-(4-(3,3-dimethylbutanoyl)piperazin-1-yl)-2-methoxyphenylamino)pyrimidin-4-yloxy)phenyl)acrylamide] | – | > 1000 | 500 to 1000 | 100 to 500 | – | – | – | –
C=CC(=O)Nc1cccc(Oc2nc(Nc3ccc(N4CCN(S(N)(=O)=O)CC4)cc3OC)ncc2C(F)(F)F)c1 [Compound I-27, N-(3-(2-(2-methoxy-4-(4-sulfamoylpiperazin-1-yl)phenylamino)-5-(trifluoromethyl)pyrimidin-4-yloxy)phenyl)acrylamide] | – | > 1000 | 100 to 500 | 10 to 100 | – | – | – | –
C=CC(=O)Nc1cccc(Nc2nc(Nc3ccc(N4CCN(C(=O)NC)CC4)cc3OC)ncc2C(F)(F)F)c1 [Compound I-28, 4-(4-(4-(3-acrylamidophenylamino)-5-(trifluoromethyl)pyrimidin-2-ylamino)-3-methoxyphenyl)-N-methylpiperazine-1-carboxamide] | – | > 1000 | 500 to 1000 | 10 to 100 | – | – | – | –
C=CC(=O)Nc1cccc(Nc2nc(Nc3ccc(N4CCN(C(=O)OC)CC4)cc3OC)ncc2C(F)(F)F)c1 [Compound I-29, methyl 4-(4-(4-(3-acrylamidophenylamino)-5-(trifluoromethyl)pyrimidin-2-ylamino)-3-methoxyphenyl)piperazine-1-carboxylate] | – | > 1000 | 10 to 100 | 10 to 100 | – | – | – | –
C=CC(=O)Nc1cccc(Nc2nc(Nc3ccc(N4CCN(C(=O)CC)CC4)cc3OC)ncc2C(F)(F)F)c1 [Compound I-35, N-(3-(2-(2-methoxy-4-(4-propionylpiperazin-1-yl)phenylamino)-5-(trifluoromethyl)pyrimidin-4-ylamino)phenyl)acrylamide] | – | > 1000 | 10 to 100 | 10 to 100 | – | – | – | –
C=CC(=O)Nc1cccc(Oc2nc(Nc3ccc(N4CCOCC4)cc3OC(F)F)ncc2Cl)c1 [Compound I-36, N-(3-(5-chloro-2-(2-(difluoromethoxy)-4-morpholinophenylamino)pyrimidin-4-yloxy)phenyl)acrylamide] | – | > 1000 | 100 to 500 | 10 to 100 | – | – | – | –
C=CC(=O)Nc1cccc(Oc2nc(Nc3ccc(N4CCCOCC4)cc3OC)ncc2Cl)c1 [Compound I-37, N-(3-(5-chloro-2-(2-methoxy-4-(1,4-oxazepan-4-yl)phenylamino)pyrimidin-4-yloxy)phenyl)acrylamide] | – | > 1000 | 500 to 1000 | 100 to 500 | – | – | – | –
C=CC(=O)Nc1cccc(Nc2nc(Nc3ccc(N4CCCOCC4)cc3OC)ncc2C(F)(F)F)c1 [Compound I-38, N-(3-(2-(2-methoxy-4-(1,4-oxazepan-4-yl)phenylamino)-5-(trifluoromethyl)pyrimidin-4-ylamino)phenyl)acrylamide] | – | > 1000 | > 1000 | 500 to 1000 | – | – | – | –
C=CC(=O)Nc1cccc(Oc2nc(Nc3ccc(N4CCCN(C(=O)OC(C)(C)C)CC4)cc3OC)ncc2C(F)(F)F)c1 [Compound I-39, tert-butyl 4-(4-(4-(3-acrylamidophenoxy)-5-(trifluoromethyl)pyrimidin-2-ylamino)-3-methoxyphenyl)-1,4-diazepane-1-carboxylate] | – | > 1000 | > 1000 | > 1000 | – | – | – | –
C=CC(=O)Nc1cccc(Nc2nc(Nc3ccc(N4CCN(C(=O)OC(C)(C)C)[C@H](C(=O)OC)C4)cc3OC)ncc2C(F)(F)F)c1 [Compound I-50, (S)-1-tert-butyl 2-methyl 4-(4-(4-(3-acrylamidophenylamino)-5-(trifluoromethyl)pyrimidin-2-ylamino)-3-methoxyphenyl)piperazine-1,2-dicarboxylate] | – | > 1000 | 100 to 500 | 10 to 100 | – | – | – | –
CCOc1cc2ncc(C#N)c(Nc3ccc(OCc4ccccn4)c(Cl)c3)c2cc1NC(=O)/C=C/CN(C)C [HKI-272, reference compound] | – | – | – | – | – | – | – | 4
